# Patent US20260325533A1, “CDK INHIBITOR COMPOUNDS” (ALEKSIA THERAPEUTICS, INC., priority 2023, published 2026)
# Where two headings read alike, the source gives them in different places.
# Experiments:
# Assay type in all cases: biochemical
# [1] = biological target: CDK6/CCND1 (Homo sapiens, UniProt Q00534); experiment: CDK6 homogeneous time-resolved fluorescence (HTRF) kinase assay; details: CDK6/CCND
# Summary of the method: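 Enzyme pre-incubated 20 min at 23 °C with compound, then reacted 60 min at 23 °C with 1 mM ATP and 50 nM ULight-4E-BP1 (Thr37/46) peptide; 1 nM enzyme, 1% DMSO. EDTA-stopped, Eu-anti-phospho antibody TR-FRET read (665 nm or 665/615 ratio); 11-point half-log titration from 10 μM gave IC50.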
# [2] = biological target: CDK2/CCNE1 (Homo sapiens, UniProt P24941); experiment: CDK2 homogeneous time-resolved fluorescence (HTRF) kinase assay; details: CDK2/CCNE
# Summary of the method: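 CDK2/CCNE1 (3 nM) preincubated 20 min at 23 °C with compound, then reacted 60 min at 23 °C with 1 mM ATP and 50 nM ULight-4E-BP1 (Thr37/46) peptide. Stopped with EDTA, phospho-peptide detected by Eu-anti-phospho antibody (665 nm or 665/615 ratio). IC50 from 11-point half-log titrations typically starting at 10 μM.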
# [3] = biological target: CDK1/CCNB1 (Homo sapiens, UniProt P06493); experiment: CDK1 homogeneous time-resolved fluorescence (HTRF) kinase assay; details: CDK1/CCNB
# CDK1/CCNB1, sequence (P06493 whole entry): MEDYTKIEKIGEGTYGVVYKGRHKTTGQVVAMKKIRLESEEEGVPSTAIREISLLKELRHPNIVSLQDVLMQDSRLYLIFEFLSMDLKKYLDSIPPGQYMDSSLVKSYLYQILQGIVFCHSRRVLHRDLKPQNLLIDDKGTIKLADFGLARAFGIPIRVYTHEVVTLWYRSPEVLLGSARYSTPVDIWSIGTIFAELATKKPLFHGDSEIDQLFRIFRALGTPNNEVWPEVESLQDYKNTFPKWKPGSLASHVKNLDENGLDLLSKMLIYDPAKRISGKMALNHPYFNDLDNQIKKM
# CDK1/CCNB1, sequence (P14635 whole entry partner): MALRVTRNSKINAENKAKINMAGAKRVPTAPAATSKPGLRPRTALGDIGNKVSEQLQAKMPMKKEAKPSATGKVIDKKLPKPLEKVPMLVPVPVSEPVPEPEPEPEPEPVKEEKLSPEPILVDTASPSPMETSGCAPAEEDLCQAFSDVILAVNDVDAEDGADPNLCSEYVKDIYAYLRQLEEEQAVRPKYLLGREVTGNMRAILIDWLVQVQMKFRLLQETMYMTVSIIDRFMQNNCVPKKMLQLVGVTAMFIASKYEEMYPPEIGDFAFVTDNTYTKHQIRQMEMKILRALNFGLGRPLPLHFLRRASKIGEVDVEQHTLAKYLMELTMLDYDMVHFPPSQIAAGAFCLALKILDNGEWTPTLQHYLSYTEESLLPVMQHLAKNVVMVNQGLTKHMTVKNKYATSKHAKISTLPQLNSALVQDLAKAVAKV
# Summary of the method: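 Read-out: TR-FRET (Eu anti-phospho-4E-BP1 Thr37/46 antibody, 2 nM; 665 nm or 665/615 ratio) after 60 min phosphorylation of 50 nM ULight-peptide by 0.5 nM CDK1/CCNB1 at 1 mM ATP, 23 °C. Compound preincubated 20 min with enzyme; 1% DMSO.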
# [4] = biological target: CDK4/CCND3 (Homo sapiens, UniProt P11802); experiment: CDK4 homogeneous time-resolved fluorescence (HTRF) kinase assay; details: CDK4/CCND
# CDK4/CCND3, sequence (P11802 whole entry): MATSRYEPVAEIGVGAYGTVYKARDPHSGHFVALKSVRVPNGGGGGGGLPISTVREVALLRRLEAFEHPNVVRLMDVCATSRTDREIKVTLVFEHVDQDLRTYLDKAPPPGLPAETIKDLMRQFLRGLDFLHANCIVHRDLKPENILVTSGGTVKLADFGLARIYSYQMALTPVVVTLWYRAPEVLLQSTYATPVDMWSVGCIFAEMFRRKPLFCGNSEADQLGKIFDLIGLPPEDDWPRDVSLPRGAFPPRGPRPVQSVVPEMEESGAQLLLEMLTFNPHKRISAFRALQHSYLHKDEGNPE
# CDK4/CCND3, sequence (P30281 whole entry partner): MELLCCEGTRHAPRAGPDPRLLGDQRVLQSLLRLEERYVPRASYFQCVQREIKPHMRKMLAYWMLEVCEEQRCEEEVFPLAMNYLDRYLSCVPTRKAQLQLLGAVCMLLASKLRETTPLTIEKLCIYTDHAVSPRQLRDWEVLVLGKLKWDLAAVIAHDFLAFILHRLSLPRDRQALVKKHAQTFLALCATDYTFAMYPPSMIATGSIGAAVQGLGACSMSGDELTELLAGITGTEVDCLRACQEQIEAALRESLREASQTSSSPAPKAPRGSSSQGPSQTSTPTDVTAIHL
# Summary of the method: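 CDK4/CCND3 at 1.5 nM was preincubated with compound for 20 min at 23 °C, then reacted for 60 min with 1 mM ATP and 50 nM ULight-4E-BP1 (Thr37/46) peptide. The reaction was stopped with EDTA, and phosphorylation was read by HTRF with a Eu-anti-phospho antibody. IC50 values came from 11-point half-log titrations, typically from 10 μM.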
# [5] = 25-250 nM, 1 mM ATP, read-out: CDK6/CCND IC50, 25-250 nM
# [6] = <25 nM, read-out: CDK2/CCNE IC50, <25 nM
# [7] = 25-250 nM, read-out: CDK1/CCNB IC50, 25-250 nM
# [8] = 25-250 nM, read-out: CDK4/CCND IC50, 25-250 nM
# [9] = >250 nM, 1 mM ATP, read-out: CDK6/CCND IC50, >250 nM
# [10] = >250 nM, read-out: CDK1/CCNB IC50 >250 nM
# [11] = >250 nM, read-out: CDK4/CCND IC50, >250 nM
# [12] = x = IC50 >250 nM, read-out: CDK6/CCND IC50 (>250 nM column)
# [13] = x = IC50 25-250 nM, read-out: CDK2/CCNE IC50 (25-250 nM)
# [14] = x = IC50 >250 nM, read-out: CDK1/CCNB IC50 (>250 nM column)
# [15] = x = IC50 >250 nM, read-out: CDK4/CCND IC50 (>250 nM column)
# [16] = x = IC50 <25 nM, read-out: CDK2/CCNE IC50 (<25 nM)
# [17] = 25-250 nM marked x, read-out: CDK2/CCNE IC50 25-250 nM
# [18] = >250 nM marked x, read-out: CDK1/CCNB IC50 >250 nM
# CDK6/CCND1, sequence (Q00534 whole entry): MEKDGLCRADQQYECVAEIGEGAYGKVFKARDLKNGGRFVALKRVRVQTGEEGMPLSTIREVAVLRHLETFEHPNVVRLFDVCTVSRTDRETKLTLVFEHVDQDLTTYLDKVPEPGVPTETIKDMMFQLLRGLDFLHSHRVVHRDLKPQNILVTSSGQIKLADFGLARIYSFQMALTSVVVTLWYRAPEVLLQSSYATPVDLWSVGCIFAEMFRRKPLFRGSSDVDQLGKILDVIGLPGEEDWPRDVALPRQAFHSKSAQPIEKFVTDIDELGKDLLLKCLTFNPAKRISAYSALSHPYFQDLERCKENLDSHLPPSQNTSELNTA
# CDK6/CCND1, sequence (P24385 whole entry partner): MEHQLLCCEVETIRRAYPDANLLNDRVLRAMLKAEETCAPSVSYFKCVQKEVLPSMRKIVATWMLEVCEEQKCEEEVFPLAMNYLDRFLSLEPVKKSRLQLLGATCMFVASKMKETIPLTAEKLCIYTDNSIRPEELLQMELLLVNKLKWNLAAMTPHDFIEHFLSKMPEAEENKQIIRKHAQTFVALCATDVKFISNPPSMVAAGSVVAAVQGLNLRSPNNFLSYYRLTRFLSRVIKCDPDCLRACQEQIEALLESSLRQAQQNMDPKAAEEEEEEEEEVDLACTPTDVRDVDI
compound,measurement,setting,value
"Cc1c(-c2nccc3cnc(Nc4ccc(NS(=O)(=O)c5cn(C)cn5)cc4)cc23)ccc2c1cnn2CC(C)(C)O [Ex 828, N-(4-((5-(1-(2-hydroxy-2-methylpropyl)-4-methyl-1H-indazol-5-yl)-2,6-naphthyridin-3-yl)amino)phenyl)-1-methyl-1H-imidazole-4-sulfonamide]",IC50,[1]; [5],25 to 250 nM
same,IC50,[2]; [6],< 25 nM
same,IC50,[3]; [7],25 to 250 nM
same,IC50,[4]; [8],25 to 250 nM
"Cc1ccnc(NS(=O)(=O)c2ccc(Nc3cc4c(-c5ccc6c(cnn6CC(O)(C(F)(F)F)C(F)(F)F)c5C)nccc4cn3)cc2)n1 [Ex 759, 4-((5-(4-methyl-1-(3,3,3-trifluoro-2-hydroxy-2-(trifluoromethyl)propyl)-1H-indazol-5-yl)-2,6-naphthyridin-3-yl)amino)-N-(4-methylpyrimidin-2-yl)benzenesulfonamide]",IC50,[1]; [9],> 250 nM
same,IC50,[2]; [6],< 25 nM
same,IC50,[3]; [10],> 250 nM
same,IC50,[4]; [11],> 250 nM
"CS(=N)(=O)c1ccc(Nc2cc3c(C#Cc4ccc(C#N)cc4)nccc3cn2)cc1 (single isomer, unassigned) [Example 511, 4-((7-((4-(S-methylsulfonimidoyl)phenyl)amino)-2,6-naphthyridin-1-yl)ethynyl)benzonitrile]",IC50,[1]; [12],> 250 nM
same,IC50,[2]; [13],25 to 250 nM
same,IC50,[3]; [14],> 250 nM
same,IC50,[4]; [15],> 250 nM
"CS(=O)(=O)c1ccc(Nc2cc3c(C#Cc4ncc(N)nc4Cl)nccc3cn2)cc1 [Ex 552, 5-((5-amino-3-chloropyrazin-2-yl)ethynyl)-N-(4-(methylsulfonyl)phenyl)-2,6-naphthyridin-3-amine]",IC50,"[1]; x = IC50 <25 nM, read-out: CDK6/CCND IC50 (<25 nM)",< 25 nM
same,IC50,[2]; [13],25 to 250 nM
same,IC50,[3]; [14],> 250 nM
same,IC50,[4]; [15],> 250 nM
"Cc1c(-c2nccc3cnc(Nc4ccc(S(=O)(=O)Nc5cccc(C(C)(C)O)c5)cc4)cc23)ccc2c1cnn2CC(C)(C)O [Ex 802, 4-((5-(1-(2-hydroxy-2-methylpropyl)-4-methyl-1H-indazol-5-yl)-2,6-naphthyridin-3-yl)amino)-N-(3-(2-hydroxypropan-2-yl)phenyl)benzenesulfonamide]",IC50,[1]; [9],> 250 nM
same,IC50,[2]; [6],< 25 nM
same,IC50,[3]; [10],> 250 nM
same,IC50,[4]; [11],> 250 nM
"Nc1ncccc1C#Cc1nccc2cnc(Nc3ccc(S(=O)(=O)NC4CC4)cc3)cc12 [Ex 435, 4-((5-((2-aminopyridin-3-yl)ethynyl)-2,6-naphthyridin-3-yl)amino)-N-cyclopropylbenzenesulfonamide]",IC50,[1]; [12],> 250 nM
same,IC50,[2]; [16],< 25 nM
same,IC50,"[3]; x = IC50 25-250 nM, read-out: CDK1/CCNB IC50 (25-250 nM)",25 to 250 nM
same,IC50,[4]; [15],> 250 nM
"Cc1c(-c2nccc3cnc(Nc4ccc(NS(=O)(=O)c5ccoc5)cc4)cc23)ccc2c1cnn2CC(C)(C)O [Ex 825, N-(4-((5-(1-(2-hydroxy-2-methylpropyl)-4-methyl-1H-indazol-5-yl)-2,6-naphthyridin-3-yl)amino)phenyl)furan-3-sulfonamide]",IC50,[1]; [5],25 to 250 nM
same,IC50,[2]; [6],< 25 nM
same,IC50,[3]; [7],25 to 250 nM
same,IC50,[4]; [8],25 to 250 nM
"Cc1c(-c2nccc3cnc(Nc4ccc(S(=O)(=O)NC5CCCN(CCO)C5)cc4)cc23)ccc2c1cnn2CC(C)(C)O (racemic) [Ex 760, 4-((5-(1-(2-hydroxy-2-methylpropyl)-4-methyl-1H-indazol-5-yl)-2,6-naphthyridin-3-yl)amino)-N-(1-(2-hydroxyethyl)piperidin-3-yl)benzenesulfonamide]",IC50,[1]; [5],25 to 250 nM
same,IC50,[2]; [6],< 25 nM
same,IC50,[3]; [10],> 250 nM
same,IC50,[4]; [8],25 to 250 nM
"CN(C)c1ncc(C#Cc2nccc3cnc(Nc4ccc(S(C)(=O)=O)cc4)cc23)cn1 [Ex 538, 5-((2-(dimethylamino)pyrimidin-5-yl)ethynyl)-N-(4-(methylsulfonyl)phenyl)-2,6-naphthyridin-3-amine]",IC50,[1]; [12],> 250 nM
same,IC50,[2]; [13],25 to 250 nM
same,IC50,[3]; [14],> 250 nM
same,IC50,[4]; [15],> 250 nM
"Cc1c(-c2nccc3cnc(Nc4ccc(S(C)(=N)=O)cc4)cc23)ccc2nn(C)cc12 (racemic) [Example 626, (4-((5-(2,4-dimethyl-2H-indazol-5-yl)-2,6-naphthyridin-3-yl)amino)phenyl)(imino)(methyl)-λ^6-sulfanone]",IC50,[1]; [12],> 250 nM
same,IC50,[2]; [16],< 25 nM
same,IC50,[3]; [14],> 250 nM
same,IC50,[4]; [15],> 250 nM
"CS(=O)(=O)N1CCC(Nc2cc3c(N4CCC(F)(F)CC4)nccc3cn2)CC1 [Ex 47, 5-(4,4-difluoropiperidin-1-yl)-N-(1-(methylsulfonyl)piperidin-4-yl)-2,6-naphthyridin-3-amine]",IC50,"[1]; <25 nM, read-out: CDK6/CCND IC50 <25 nM",< 25 nM
same,IC50,[2]; [17],25 to 250 nM
same,IC50,"[3]; 25-250 nM marked x, read-out: CDK1/CCNB IC50 25-250 nM",25 to 250 nM
same,IC50,"[4]; <25 nM, read-out: CDK4/CCND IC50 <25 nM",< 25 nM
"CS(=O)(=O)c1ccc(Nc2cc3c(C4CCN(S(=O)(=O)C5CC5)C4)nccc3cn2)cc1 (racemic) [Ex 239, 5-(1-(cyclopropylsulfonyl)pyrrolidin-3-yl)-N-(4-(methylsulfonyl)phenyl)-2,6-naphthyridin-3-amine]",IC50,"[1]; >250 nM marked x, read-out: CDK6/CCND IC50 >250 nM",> 250 nM
same,IC50,"[2]; >250 nM marked x, read-out: CDK2/CCNE IC50 >250 nM",> 250 nM
same,IC50,[3]; [18],> 250 nM
same,IC50,"[4]; >250 nM marked x, read-out: CDK4/CCND IC50 >250 nM",> 250 nM
"Cc1c(-c2nccc3cnc(Nc4ccc(S(=O)(=O)NCC(F)(F)F)cc4)cc23)ccc2c1cnn2CC(O)(C(F)(F)F)C(F)(F)F [Ex 684, 4-((5-(4-methyl-1-(3,3,3-trifluoro-2-hydroxy-2-(trifluoromethyl)propyl)-1H-indazol-5-yl)-2,6-naphthyridin-3-yl)amino)-N-(2,2,2-trifluoroethyl)benzenesulfonamide]",IC50,[1]; [9],> 250 nM
same,IC50,"[2]; 25-250 nM, read-out: CDK2/CCNE IC50, 25-250 nM",25 to 250 nM
same,IC50,[3]; [10],> 250 nM
same,IC50,[4]; [11],> 250 nM
"CS(=O)(=O)c1ccc(Nc2cc3c(C#Cc4ccc(C#N)nc4)nccc3cn2)cc1 [Ex 669, 5-((7-((4-(methylsulfonyl)phenyl)amino)-2,6-naphthyridin-1-yl)ethynyl)picolinonitrile]",IC50,[1]; [12],> 250 nM
same,IC50,[2]; [13],25 to 250 nM
same,IC50,[3]; [14],> 250 nM
same,IC50,[4]; [15],> 250 nM
"CS(=O)(=O)c1ccc(Nc2cc3c(C#C[C@H]4CC[C@H](N)CC4)nccc3cn2)cc1 [Ex 247, 5-(((1r,4r)-4-aminocyclohexyl)ethynyl)-N-(4-(methylsulfonyl)phenyl)-2,6-naphthyridin-3-amine]",IC50,"[1]; 25-250 nM marked x, read-out: CDK6/CCND IC50 25-250 nM",25 to 250 nM
same,IC50,[2]; [17],25 to 250 nM
same,IC50,[3]; [18],> 250 nM
same,IC50,"[4]; 25-250 nM marked x, read-out: CDK4/CCND IC50 25-250 nM",25 to 250 nM
"COc1ccc(C(=O)N2CC[C@@H](Nc3cc4c(-c5ccc6c(cnn6CC(C)(C)O)c5C)nccc4cn3)C2)cc1 [Example 790, (R)-(3-((5-(1-(2-hydroxy-2-methylpropyl)-4-methyl-1H-indazol-5-yl)-2,6-naphthyridin-3-yl)amino)pyrrolidin-1-yl)(4-methoxyphenyl)methanone]",IC50,[1]; [9],> 250 nM
same,IC50,[2]; [6],< 25 nM
same,IC50,[3]; [10],> 250 nM
same,IC50,[4]; [11],> 250 nM
